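Test compounds were applied to cells in 96-well plates for 48 hours at 5 doses. At the GI50, growth is halved. TGI: total growth inhibition.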
How the values were obtained:
Experiment in all cases: DTP human tumour cell line panel, 48 h
[1] = tested on: COLO 205 colon
[2] = tested on: HCT-116 colon
[3] = tested on: HL-60(TB) leukemia
[4] = tested on: K-562 leukemia
[5] = tested on: KM12 colon
[6] = tested on: MOLT-4 leukemia
[7] = tested on: TK-10 renal
[8] = tested on: U251 CNS
[9] = tested on: UACC-257 melanoma
[10] = tested on: UO-31 renal

For `c1cc(CNC23CC4CC(CC(C4)C2)C3)cc(C[N+](Cc2cccc(CNC34CC5CC(CC(C5)C3)C4)c2)(Cc2cccc(CNC34CC5CC(CC(C5)C3)C4)c2)Cc2cccc(CNC34CC5CC(CC(C5)C3)C4)c2)c1` (stereo unspecified), the GI50 [1] was 4.57 µM, the TGI [1] was 13.1 µM and the GI50 [2] was 3.04 µM. It also gave a TGI [2] of 8.42 µM, a GI50 [3] of 3.64 µM and a TGI [3] of 11.3 µM. It also gave a GI50 [4] of 6.1 µM, a TGI [4] of 151 µM and a GI50 [5] of 6.92 µM. For the same compound, the TGI [5] was 28.2 µM, the GI50 [6] was 5.52 µM and the TGI [6] was 17.1 µM. For the same compound, the GI50 [7] was 7.75 µM, the TGI [7] was 30 µM and the GI50 [8] was 4.68 µM. It also gave a TGI [8] of 11.3 µM, a GI50 [9] of 12.9 µM and a TGI [9] of 45.3 µM. For the same compound, the GI50 [10] was 3.41 µM and the TGI [10] was 8.21 µM.

`COC(=O)C1=CNC=C(C(=O)OC)C1C1=CC(=O)C(C)=CC1=O` showed a GI50 [1] of 22.9 µM, a TGI [1] of 55.1 µM and a GI50 [2] of 1.94 µM. The TGI [2] was 3.79 µM, the GI50 [3] was 1.71 µM and the TGI [3] was 5.88 µM. The GI50 [4] was 1.36 µM, the TGI [4] was 3.84 µM and the GI50 [5] was 17.1 µM. For the same compound, the TGI [5] was 31.8 µM, the GI50 [6] was 2.16 µM and the TGI [6] was 5.9 µM. For the same compound, the GI50 [7] was 6.2 µM, the TGI [7] was 15.5 µM and the GI50 [8] was 16.5 µM. For the same compound, the TGI [8] was 32.1 µM, the GI50 [9] was 16.4 µM and the TGI [9] was 31.1 µM. For the same compound, the GI50 [10] was 12 µM and the TGI [10] was 24.5 µM.

In the case of `C[C@@]12CC=C3c4nc(Nc5cccc(O)c5)sc4CC[C@]3(C)[C@H]1CC[C@]1(C)C(=O)CC[C@@H]21`, the GI50 [1] is reported as 2.17 µM, the TGI [1] is reported as 4.38 µM and the GI50 [3] is reported as 2.35 µM. It also gave a TGI [3] of 6.48 µM, a GI50 [4] of 2.53 µM and a TGI [4] greater than 100 µM. For the same compound, the GI50 [7] was 2.18 µM, the TGI [7] was 6.44 µM and the GI50 [8] was 2.24 µM. It also gave a TGI [8] of 16.9 µM, a GI50 [9] of 3.69 µM and a TGI [9] greater than 100 µM.

Compound `CCC[CH2][Sn]1([CH2]CCC)[O]CC(CN2CCCC2)[O]1` (stereo unspecified) has a GI50 [1] of 18.3 µM, a TGI [1] of 34.3 µM and a GI50 [2] of 16.9 µM. It also gave a TGI [2] of 30.6 µM, a GI50 [3] of 3.87 µM and a TGI [3] of 15.2 µM. For the same compound, the GI50 [4] was 4.24 µM, the TGI [4] was 21.4 µM and the GI50 [5] was 16.1 µM. The TGI [5] was 36.4 µM, the GI50 [6] was 14.3 µM and the TGI [6] was 50.4 µM. The GI50 [7] was 12 µM, the TGI [7] was 24.3 µM and the GI50 [8] was 15.3 µM. For the same compound, the TGI [8] was 29.1 µM, the GI50 [9] was 14.3 µM and the TGI [9] was 29.7 µM. For the same compound, the GI50 [10] was 17 µM and the TGI [10] was 31.3 µM.

In the case of `O=C(N/N=C/c1ccc(Cl)cc1)c1ccc(C(F)(F)F)nc1Nc1cccc(C(F)(F)F)c1`, the GI50 [1] is reported as 1.8 µM, the TGI [1] is reported as 4.31 µM and the GI50 [2] is reported as 2.6 µM. For the same compound, the TGI [2] was 10.9 µM, the GI50 [3] was 1.45 µM and the TGI [3] was 5.69 µM. For the same compound, the GI50 [4] was 3.15 µM, the TGI [4] was greater than 35.9 µM and the GI50 [5] was 2.31 µM. It also gave a TGI [5] of 8.4 µM, a GI50 [6] of 0.731 µM and a TGI [6] of 5.3 µM. The GI50 [7] was 2.85 µM, the TGI [7] was 16.8 µM and the GI50 [8] was 1.55 µM. The TGI [8] was 10.2 µM, the GI50 [9] was 2.43 µM and the TGI [9] was 8.99 µM. It also gave a GI50 [10] of 1.66 µM and a TGI [10] of 5.42 µM.

Work on `COc1ccc(C(=O)C(C(=O)CCC(=O)Nc2cccc(Cl)c2)c2ccc(OC)cc2)cc1` (stereo unspecified) yielded a TGI [1] greater than 100 µM, a TGI [2] greater than 100 µM and a TGI [3] greater than 100 µM. For the same compound, the TGI [4] was greater than 100 µM, the TGI [5] was greater than 100 µM and the TGI [6] was greater than 100 µM. For the same compound, the TGI [7] was greater than 100 µM, the TGI [8] was greater than 100 µM and the TGI [9] was greater than 100 µM. For the same compound, the TGI [10] was greater than 100 µM.

`CN1C/C=C\CCOc2cccc(c2)-c2ccnc(n2)Nc2cccc(c2)C1` was tested, and the GI50 [1] was 0.024 µM, the TGI [1] was 0.0762 µM and the GI50 [2] was 0.0298 µM. It also gave a TGI [2] of 0.677 µM, a GI50 [3] of 0.0232 µM and a TGI [3] of 0.103 µM. The GI50 [4] was 0.0931 µM, the TGI [4] was 6.21 µM and the GI50 [5] was 0.0377 µM. For the same compound, the TGI [5] was 0.506 µM, the GI50 [6] was 0.0371 µM and the TGI [6] was 0.874 µM. The GI50 [7] was 0.0762 µM, the TGI [7] was 0.88 µM and the GI50 [8] was 0.0374 µM. It also gave a TGI [8] of 0.678 µM, a GI50 [9] of 0.0722 µM and a TGI [9] of 0.371 µM. It also gave a GI50 [10] of 0.0324 µM and a TGI [10] of 0.46 µM.

`CCOC(=O)[C@@H](N)CCC(=O)N[C@@H](CSCc1ccccc1)C(=O)N[C@@H](C(=O)OCC)c1ccccc1` gave a GI50 [1] of 17.4 µM, a TGI [1] of 34.2 µM and a GI50 [2] of 18.3 µM. It also gave a TGI [2] of 36.8 µM, a GI50 [3] of 18.5 µM and a TGI [3] of 39.5 µM. For the same compound, the GI50 [4] was 22.2 µM, the TGI [4] was 75 µM and the GI50 [5] was 18.1 µM. For the same compound, the TGI [5] was 33.8 µM, the GI50 [6] was 24.8 µM and the TGI [6] was greater than 71.4 µM. For the same compound, the GI50 [7] was 16.6 µM, the TGI [7] was 32.7 µM and the GI50 [8] was 16.6 µM. The TGI [8] was 31.3 µM, the GI50 [9] was 15.4 µM and the TGI [9] was 29.7 µM. It also gave a GI50 [10] of 34.5 µM and a TGI [10] greater than 59.5 µM.

With `COc1cc2c(cc1OC)C(CC(=O)NN=C(C)C)NCC2` (stereo unspecified) the TGI [1] was greater than 100 µM, the TGI [2] was greater than 100 µM and the TGI [3] was greater than 100 µM. It also gave a TGI [4] greater than 100 µM, a TGI [5] greater than 100 µM and a TGI [6] greater than 100 µM. For the same compound, the TGI [7] was greater than 100 µM, the TGI [8] was greater than 100 µM and the TGI [9] was greater than 100 µM. For the same compound, the TGI [10] was greater than 100 µM.

With `COC(=O)[C@H](C)NC(=O)NC(=O)NC(=O)CI` the GI50 [1] was 2.54 µM, the TGI [1] was 6.49 µM and the GI50 [2] was 13.9 µM. The TGI [2] was 28.4 µM, the GI50 [3] was 2.15 µM and the TGI [3] was 4.51 µM. For the same compound, the GI50 [4] was 4.16 µM, the TGI [4] was 17 µM and the GI50 [5] was 17.8 µM. The TGI [5] was 35.5 µM, the GI50 [6] was 2.21 µM and the TGI [6] was 5.17 µM. For the same compound, the GI50 [7] was 16.9 µM, the TGI [7] was 30.6 µM and the GI50 [8] was 17.3 µM. For the same compound, the TGI [8] was 31.4 µM, the GI50 [9] was 15.8 µM and the TGI [9] was 29.9 µM. For the same compound, the GI50 [10] was 6.83 µM and the TGI [10] was 20.1 µM.

`N#CCN1C(=O)c2cccc3cc([N+](=O)[O-])cc(c23)C1=O` showed a TGI [1] greater than 100 µM, a TGI [2] greater than 100 µM and a TGI [3] of 56.4 µM. For the same compound, the TGI [4] was greater than 100 µM, the TGI [5] was greater than 100 µM and the TGI [6] was greater than 100 µM. The TGI [7] was 95.6 µM, the TGI [8] was greater than 100 µM and the TGI [9] was 83.1 µM. For the same compound, the TGI [10] was greater than 100 µM.

Compound `CCOC(=O)C1=C(C)N(NC(=O)Nc2ccccc2)C(=O)C1=P(c1ccccc1)(c1ccccc1)c1ccccc1` has a TGI [1] of 56.4 µM, a TGI [2] greater than 100 µM and a TGI [3] of 50.4 µM. It also gave a TGI [4] greater than 100 µM, a TGI [6] of 65.6 µM and a TGI [7] greater than 100 µM. The TGI [8] was greater than 100 µM, the TGI [9] was greater than 100 µM and the TGI [10] was greater than 100 µM.

In the case of `COc1cc2ncnc(Nc3ccc(C)c(O)c3)c2cc1OC`, the GI50 [1] is reported as greater than 25 µM, the TGI [1] is reported as greater than 25 µM and the GI50 [2] is reported as greater than 25 µM. The TGI [2] was greater than 25 µM, the GI50 [3] was greater than 25 µM and the TGI [3] was greater than 25 µM. It also gave a GI50 [4] of 7.19 µM, a TGI [4] greater than 25 µM and a GI50 [5] greater than 25 µM. It also gave a TGI [5] greater than 25 µM, a GI50 [6] greater than 25 µM and a TGI [6] greater than 25 µM. For the same compound, the GI50 [7] was 3.62 µM, the TGI [7] was 12 µM and the GI50 [8] was 15.8 µM. It also gave a TGI [8] greater than 25 µM, a GI50 [9] greater than 25 µM and a TGI [9] greater than 25 µM. For the same compound, the GI50 [10] was 1.59 µM and the TGI [10] was greater than 17.2 µM.

In the case of `Oc1ccccc1C(Sc1nc2ccccc2s1)Sc1nc2ccccc2s1`, the TGI [1] is reported as greater than 100 µM, the TGI [2] is reported as greater than 100 µM and the TGI [3] is reported as greater than 100 µM. For the same compound, the TGI [4] was greater than 100 µM, the TGI [5] was greater than 100 µM and the TGI [6] was greater than 100 µM. The TGI [7] was greater than 100 µM, the TGI [8] was greater than 100 µM and the TGI [9] was greater than 100 µM. For the same compound, the TGI [10] was greater than 100 µM.

Source: PubChem BioAssay (NCI)
